According to EP0279263B1, “Indole, benzofuran, benzothiophene containing lipoxygenase inhibiting compounds” (ABBOTT LABORATORIES, priority 1987, dated 1988):

Molecular target: T1, 5-lipoxygenase (Rattus norvegicus, UniProt P12527)
T1 construct: 20,000xg supernatant from 6x10⁴ homogenized RBL-1 cells; endogenous in cells; host or cells: RBL-1 cells (homogenate, 20,000xg supernatant)
T1 sequence (P12527 1-673): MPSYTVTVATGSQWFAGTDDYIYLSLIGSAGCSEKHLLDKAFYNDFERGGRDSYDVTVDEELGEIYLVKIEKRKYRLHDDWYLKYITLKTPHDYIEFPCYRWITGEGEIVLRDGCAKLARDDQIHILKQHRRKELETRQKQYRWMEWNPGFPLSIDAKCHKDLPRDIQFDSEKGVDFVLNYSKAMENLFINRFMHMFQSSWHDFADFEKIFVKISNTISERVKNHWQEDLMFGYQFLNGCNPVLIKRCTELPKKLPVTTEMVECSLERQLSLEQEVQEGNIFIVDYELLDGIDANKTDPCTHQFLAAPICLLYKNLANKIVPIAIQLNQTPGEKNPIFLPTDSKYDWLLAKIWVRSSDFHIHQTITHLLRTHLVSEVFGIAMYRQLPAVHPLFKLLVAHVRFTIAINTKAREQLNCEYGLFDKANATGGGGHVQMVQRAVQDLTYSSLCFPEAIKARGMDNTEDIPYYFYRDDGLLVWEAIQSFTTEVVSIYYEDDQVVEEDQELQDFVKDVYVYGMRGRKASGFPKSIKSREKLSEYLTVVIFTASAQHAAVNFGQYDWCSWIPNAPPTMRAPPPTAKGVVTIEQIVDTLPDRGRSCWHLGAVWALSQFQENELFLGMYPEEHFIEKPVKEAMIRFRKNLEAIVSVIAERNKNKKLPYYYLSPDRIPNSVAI
Experiment: Lipoxygenase IC50 determination (5-lipoxygenase inhibitory activity, RBL-1 cell supernatant)
Assay type: biochemical
Conditions: 20,000xg supernatant from homogenized RBL-1 cells, radiolabelled arachidonic acid, 2% DMSO vehicle
Protocol: Reactions were initiated by addition of radiolabelled arachidonic acid and terminated by acidification and ether extraction. Reaction products were separated from nonconverted substrate by thin layer chromatography and measured by liquid scintillation spectroscopy. All treatments were evaluated in triplicate incubations.

Row | IC50 | SMILES
1 | 3 µM | CC(c1cc2ccccc2n1S(C)(=O)=O)N(O)C(N)=O (stereo not shown) [Example 40, N-hydroxy-N-[1-(1-methanesulfonylindol-2-yl)ethyl] urea]
2 | 1.1 µM | CN(C)C(=O)N(O)Cc1cc2ccccc2s1 [Example 7, N-hydroxy-N-benzo[b]thien-2-ylmethyl N',N'-dimethyl urea]
3 | 0.46 µM | CC(Cc1cc2ccccc2s1)N(O)C(N)=O (stereo not shown) [Example 30, N-hydroxy-N-(2-benzo[b]thien-2-yl-1-methylethyl) urea]
4 | 8.5 µM | CC(C1Cc2ccccc2O1)N(O)C(N)=O (stereo not shown) [Example 42, N-hydroxy-N-[1-(2,3-dihydrobenzo[b]fur-yl)ethyl] urea]
5 | 0.2 µM | CNC(=O)N(O)C(C)c1cc2ccc(OCc3ccccc3)cc2o1 (stereo not shown) [Example 52, N-hydroxy-N-[1-(6-benzyloxybenzo[b]fur-2-yl)ethyl]N'-methyl urea]
6 | 2.7 µM | CC(c1cc2ccccc2o1)N(O)C(N)=O (stereo not shown) [Example 15, N-hydroxy-N-(1-benzo[b]fur-2-ylethyl) urea]
7 | 1.3 µM | CC(c1csc2ccccc12)N(O)C(N)=O (stereo not shown) [Example 9, N-hydroxy-N-(1-benzo[b]thien-3-ylethyl) urea]
8 | 0.27 µM | CC(=O)N(O)CC=Cc1cc2ccccc2s1 [Example 31, N-hydroxy-N-(3-benzo[b]thien-2-ylprop-2-enyl) acetamide]
9 | 1 µM | CCNC(=O)N(O)Cc1cc2ccccc2s1 [Example 47, N-hydroxy-N-benzo[b]thien-2-ylmethyl-N'-ethyl urea]
10 | 1.9 µM | COc1cccc2cc(C(C)N(O)C(N)=O)oc12 (stereo not shown) [Example 34]
11 | 8.2 µM | NC(=O)N(O)Cc1cc2ccccc2o1 [Example 49, N-hydroxy-N-benzo[b]fur-2-ylmethyl urea]
12 | 1.9 µM | CNC(=O)N(O)Cc1cc2ccccc2s1 [Example 46, N-hydroxy-N-benzo[b]thien-2-ylmethyl N'-methyl urea]
13 | 2.3 µM | CNC(=O)N(O)Cc1cc2ccccc2o1 [Example 50, N-hydroxy-N-benzo[b]fur-2-ylmethyl N'-methyl urea]
14 | 0.19 µM | CNC(=S)N(O)C(C)c1cc2ccccc2s1 (stereo not shown) [Example 45, N-hydroxy-N-(1-benzo[b]thien-2-ylethyl) N'-methyl thiourea]
15 | 0.35 µM | NC(=O)N(O)CC=Cc1cc2ccccc2s1 [Example 32, N-hydroxy-N-(3-benzo[b]thien-2-ylprop-2-enyl) urea]
16 | 0.4 µM | Cc1ccc(C)c2sc(C(C)N(O)C(N)=O)cc12 (stereo not shown) [Example 28, N-hydroxy-N-[1-(4,7-dimethylbenzo[b]thien-2-yl)ethyl] urea]
17 | 0.25 µM | CC(c1cc2ccc(OCc3ccccc3)cc2o1)N(O)C(N)=O (stereo not shown) [Example 51, N-hydroxy-N-[1-(6-benzyloxybenzo[b]fur-2-yl)ethyl] urea]
18 | 1 µM | CC(c1cc2cc(Cl)ccc2[nH]1)N(O)C(N)=O (stereo not shown) [Example 38]
19 | 2.8 µM | CC(c1cn(C)c2ccccc12)N(O)C(N)=O (stereo not shown) [Example 17, N-hydroxy-N-(1-(1-methylindol-3-yl)ethyl) urea]

Row | IC50 | SMILES
20 | 1.4 µM | CC(=O)N(O)C(C)c1csc2ccccc12 (stereo not shown) [Example 8, N-hydroxy-N-(1-benzo[b]thien-3-ylethyl) acetamide]
21 | 0.2 µM | CC(C)CC(c1cc2ccccc2s1)N(O)C(N)=O (stereo not shown) [Example 48]
22 | 0.54 µM | Cc1c(C(C)N(O)C(N)=O)sc2ccccc12 (stereo not shown) [Example 10, N-hydroxy-N-[1-(3-methylbenzo[b]thien-2-yl)ethyl] urea]
23 | 0.19 µM | CC(c1cc2ccccc2s1)N(O)C(N)=S (stereo not shown) [Example 25, N-hydroxy-N-(1-benzo[b]thien-2-ylethyl) thiourea]
24 | 0.36 µM | CC(c1cc2cc(Cl)cc(Cl)c2o1)N(O)C(N)=O (stereo not shown) [Example 33, N-hydroxy-N-[1-(5,7-dichlorobenzo[b]fur-2-yl)ethyl] urea]
25 | 3.7 µM | CNC(=O)N(O)C(C)c1cn(C)c2ccccc12 (stereo not shown) [Example 18, N-hydroxy-N-(1-(1-methylindol-3-yl)ethyl) N'-methyl urea]
26 | 0.5 µM | CC(c1cc2cc(F)ccc2s1)N(O)C(N)=O (stereo not shown) [Example 29, N-hydroxy-N-[1-(5-fluorobenzo[b]thien-2-yl)ethyl] urea]
27 | 21 µM | CC(=O)N(O)C(C)C1=Cc2ccccc2S1(=O)=O (stereo not shown) [Example 12, N-hydroxy-N-[1-benzo[b]thien-2-ylethyl) acetamide 1,1-dioxide]
28 | 0.38 µM | CC(C)C(=O)N(O)C(C)c1cc2ccccc2s1 (stereo not shown) [Example 21, N-hydroxy-N-(1-benzo[b]thien-2-ylethyl) 2-methylpropionamide]
29 | 2.9 µM | CC(c1cc2ccccc2[nH]1)N(O)C(N)=O (stereo not shown) [Example 53]
30 | 1.8 µM | CCNC(=O)N(O)C(C)c1cc2ccccc2s1 (stereo not shown) [Example 44, N-hydroxy-N-(1-benzo[b]thien-2-ylethyl) N'-ethylurea]
31 | 3 µM | CC(c1cc2ccccc2s1)N(O)C=O (stereo not shown) [Example 20, N-hydroxy-N-(1-benzo[b]thien-2-ylethyl) formamide]
32 | 3.5 µM | CCOc1cccc2cc(C(C)N(O)C(N)=O)oc12 (stereo not shown) [Example 36]
33 | 0.54 µM | CC(c1cc2ccccc2s1)N(O)C(=O)N(C)C (stereo not shown) [Example 4, N-hydroxy-N-(1-benzo[b]thien-2-ylethyl) N'N'-dimethyl urea]
34 | 4 µM | CC(=O)n1c(C(C)N(O)C(N)=O)cc2ccccc21 (stereo not shown) [Example 39, N-hydroxy-N-[1-(1-acetylindol-2-yl)ethyl] urea]
35 | 0.51 µM | CC(c1cc2ccccc2s1)N(O)C(=O)NO (stereo not shown) [Example 43, N,N'-dihydroxy-N-(1-benzo[b]thien-2-ylethyl) urea]
36 | 1.6 µM | CC(c1cc2ccccc2n1C)N(O)C(N)=O (stereo not shown) [Example 24, N-hydroxy-N-(1-(1-methylindol-2-yl)ethyl) urea]
37 | 2.6 µM | CC(=O)N(O)C(C)c1cn(C)c2ccccc12 (stereo not shown) [Example 16, N-hydroxy-N-(1-(1-methylindol-3-yl)ethyl) acetamide]
